Assay results: patent publication US20080279769A1, “Enzyme Inhibitor Imaging Agents” (priority 2004, published 2008)

Experiments:
[1] = system: Lewis Lung [LLC] Carcinoma Tumour model; assay: Biodistribution in animal tumour model of MMP expression; type: in vivo; conditions: for % ID/g Tumour: 15 days tumour growth
Text: The in vivo Lewis Lung [LLC] Carcinoma Tumour model has been used for screening of MMP is due to reproducible up-regulation of several MMPs in the tumour. As such, this model provides a good assessment of the efficacy of the MMP is for in vivo targeting of lesions that express MMPs. Literature reports have shown that LLC cells express pro and active MMP-2 and pro NMP-9 and LLC tumours MMP-2 and MMP-9 (not classified as pro or active) [Bae et al Drugs Exp Clin Res. 29(1):15-23 (2003)].

ApoE ligation model = assay: Biodistribution in ApoE ligated animal model of MMP expression; type: in vivo, mice; conditions: for Carotid: Blood / Carotid: Heart: ratio
Text: The ApoE ligation model was also studied. ApoE mice are transgenic knock-out mice, which lack the ApoE gene, and are therefore unable to regulate their plasma cholesterol levels. As a consequence ApoE mice develop atherosclerotic lesions, a process which is accelerated with feeding of high fat diet. Further acceleration of lesion development can be achieved by ligating the carotid artery, resulting in advanced lesion formation within 4 weeks of surgery and high fat diet feeding. […] 105, 2686-2691 (2002)].

MMP-1 = molecular target: T1, MMP-1 (Homo sapiens, UniProt P03956); assay: In vitro metalloproteinase inhibition assay (colorimetric, thiopeptolide substrate), MMP-1; type: biochemical
T1 sequence (P03956 100-469): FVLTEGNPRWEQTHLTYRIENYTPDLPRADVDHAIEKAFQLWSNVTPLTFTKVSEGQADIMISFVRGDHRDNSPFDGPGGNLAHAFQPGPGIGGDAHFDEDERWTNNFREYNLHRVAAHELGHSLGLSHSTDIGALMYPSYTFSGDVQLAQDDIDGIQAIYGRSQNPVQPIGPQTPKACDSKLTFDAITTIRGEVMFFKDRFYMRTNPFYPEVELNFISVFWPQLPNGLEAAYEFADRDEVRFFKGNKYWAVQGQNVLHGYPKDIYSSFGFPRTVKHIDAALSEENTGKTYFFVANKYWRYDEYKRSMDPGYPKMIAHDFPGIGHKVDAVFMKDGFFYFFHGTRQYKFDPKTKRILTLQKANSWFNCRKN
Method: [The source words this procedure for another target and reports this target under the same test.] (§1) Compounds were screened using the following commercially available Biomol assay kits:
(§2) MMP-2 colorimetric assay kit-Catalogue number AK-408, MMP-9 colorimetric assay kit-Catalogue number AK-410, MMP-12 colorimetric assay kit-Catalogue number AK-402, Which are available from Affiniti Research Products Ltd. (Palatine House, Matford Court, Exeter, EX2 8NL, UK).
(§3) Inhibitors were provided in powdered form, and stored at 4° C. For each inhibitor a 1 mM stock solution in DMSO was prepared, dispensed into 20 μl aliquots and these aliquots stored at −20° C. The stock solution was diluted to give 8 inhibitor concentrations (recommended: 50 μM, 5 μM, […], 5 nM, […]). Dilutions were made in the kit assay buffer. A five-fold dilution of the inhibitor stocks is made on addition to the assay wells, therefore final concentration range was from 10 μM to 1 pM.
(§4) Details are provided with the commercial kit, but can be summarised as follows: • Prepare test compound dilutions as above, • Add assay buffer to plate, • Add test compounds to plate • Prepare standard kit inhibitor NNGH (see kit for dilution factor) • Add NNGH to control inhibitor wells • Prepare MMP enzyme (see kit for dilution factor) • Add MMP to plate • Incubate plate at 37° C. for ˜15 min • Prepare thiopeptolide substrate (see kit for dilution factor) • Add substrate to plate • Count every 2 min for 1 hr, 37° C., 414 nm on a Labsystems iEMS plate reader.

MMP-12 = MMP-12 (Homo sapiens, UniProt P39900); assay: In vitro metalloproteinase inhibition assay (Biomol MMP-12 colorimetric assay kit); type: biochemical
Method: as §1, §2, §3, §4

MMP-2 = MMP-2 (Homo sapiens, UniProt P08253); assay: In vitro metalloproteinase inhibition assay (Biomol MMP-2 colorimetric assay kit); type: biochemical
Method: as §1
(§5) Inhibitors were provided in powdered form, and stored at 4° C. For each inhibitor a 1 mM stock solution in DMSO was prepared, dispensed into 20 μl aliquots and these aliquots stored at −20° C. […] Dilutions were made in the kit assay buffer. A five-fold dilution of the inhibitor stocks is made on addition to the assay wells, therefore final concentration range was from 10 μM to 1 pM.

MMP-9 = MMP-9 (Homo sapiens, UniProt P14780); assay: In vitro metalloproteinase inhibition assay (Biomol MMP-9 colorimetric assay kit); type: biochemical
Method: as §1, §5

MMP-8 = MMP-8 (Homo sapiens, UniProt P22894); assay: In vitro metalloproteinase inhibition assay (colorimetric, thiopeptolide substrate), MMP-8; type: biochemical
Method: [The source words this procedure for another target and reports this target under the same test.] as §1, §2
Inhibitors were provided in powdered form, and stored at 4° C. For each inhibitor a 1 mM stock solution in DMSO was prepared, dispensed into 20 μl aliquots and these aliquots stored at −20° C. The stock solution was diluted to give 8 inhibitor concentrations (recommended: 50 μM, 5 μM, […], 5 nM, […]). Dilutions were made in the kit assay buffer. […]
as §4

[2] = between 5 and 120 minutes post injection

Chain of MMP-12 (P39900 106-263 limits assumed): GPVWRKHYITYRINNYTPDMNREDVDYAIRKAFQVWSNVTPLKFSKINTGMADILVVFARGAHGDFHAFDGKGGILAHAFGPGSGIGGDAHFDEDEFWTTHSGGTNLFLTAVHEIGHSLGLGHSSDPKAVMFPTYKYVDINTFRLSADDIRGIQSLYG
Chain of MMP-2 (P08253 110-446 limits assumed): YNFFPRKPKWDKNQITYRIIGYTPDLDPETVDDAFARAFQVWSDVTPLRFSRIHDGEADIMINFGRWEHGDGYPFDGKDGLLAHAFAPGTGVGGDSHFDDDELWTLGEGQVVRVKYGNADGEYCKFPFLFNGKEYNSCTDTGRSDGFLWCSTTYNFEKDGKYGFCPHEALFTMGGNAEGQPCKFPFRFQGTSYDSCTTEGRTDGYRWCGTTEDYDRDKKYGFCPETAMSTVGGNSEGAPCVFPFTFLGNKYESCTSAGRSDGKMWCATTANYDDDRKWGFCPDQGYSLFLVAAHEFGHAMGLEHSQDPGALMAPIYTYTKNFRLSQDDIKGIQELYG
Chain of MMP-9 (P14780 107-444 limits assumed): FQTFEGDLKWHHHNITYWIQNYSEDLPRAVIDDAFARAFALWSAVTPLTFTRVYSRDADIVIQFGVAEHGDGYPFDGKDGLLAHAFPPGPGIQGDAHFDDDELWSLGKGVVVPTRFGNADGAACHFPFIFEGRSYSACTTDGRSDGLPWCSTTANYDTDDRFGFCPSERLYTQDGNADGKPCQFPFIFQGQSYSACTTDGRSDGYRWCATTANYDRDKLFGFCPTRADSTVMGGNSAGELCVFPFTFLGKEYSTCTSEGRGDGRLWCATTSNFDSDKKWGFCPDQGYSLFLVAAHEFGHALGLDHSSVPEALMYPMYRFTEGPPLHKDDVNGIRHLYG
Chain of MMP-8 (P22894 101-467): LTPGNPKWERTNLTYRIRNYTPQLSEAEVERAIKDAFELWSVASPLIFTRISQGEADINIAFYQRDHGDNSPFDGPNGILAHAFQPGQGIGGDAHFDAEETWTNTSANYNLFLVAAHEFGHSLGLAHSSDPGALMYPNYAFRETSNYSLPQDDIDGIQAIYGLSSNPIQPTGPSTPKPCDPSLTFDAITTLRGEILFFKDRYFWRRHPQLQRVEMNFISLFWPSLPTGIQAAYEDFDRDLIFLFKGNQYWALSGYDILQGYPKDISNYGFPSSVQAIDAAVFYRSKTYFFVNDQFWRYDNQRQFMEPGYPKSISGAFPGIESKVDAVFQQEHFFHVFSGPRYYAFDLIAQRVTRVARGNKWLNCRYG

## CNC(=O)[C@H](Cc1ccc([123I])cc1)NC(=O)C[C@@H](CC(C)C)C(=O)NO [Compound 2A]
[1]; 5 min post injection
  % ID GI Excretion: 17.81 % ID
  % ID Heart: 0.86 % ID
  % ID Liver: 29.76 % ID
  % ID Lung: 1.38 % ID
  % ID Urinary Excretion: 19.85 % ID
  % ID/g Blood: 5.89 % ID/g
  % ID/g Tumour: 1.39 % ID/g
[1]; 30 min post injection
  % ID GI Excretion: 28.46 % ID
  % ID Heart: 0.57 % ID
  % ID Liver: 24.43 % ID
  % ID Lung: 0.73 % ID
  % ID Urinary Excretion: 22.52 % ID
  % ID/g Blood: 2.19 % ID/g
  % Retained Tumour: 78%
  % ID/g Tumour: 1.08 % ID/g
[1]; 60 min post injection
  % ID GI Excretion: 29.5 % ID
  % ID Heart: 0.56 % ID
  % ID Liver: 20.04 % ID
  % ID Lung: 0.59 % ID
  % ID Urinary Excretion: 27.7 % ID
  % ID/g Blood: 1.49 % ID/g
  % Retained Tumour: 87%
  % ID/g Tumour: 1.21 % ID/g
[1]; 120 min post injection
  % ID GI Excretion: 34.42 % ID
  % ID Heart: 0.49 % ID
  % ID Liver: 13.45 % ID
  % ID Lung: 0.45 % ID
  % ID Urinary Excretion: 31.03 % ID
  % ID/g Blood: 1.38 % ID/g
  % Retained Tumour: 97%
  % ID/g Tumour: 1.35 % ID/g
[1]; between 5 and 120 minutes p.i.
  clearance from normal tissues [e.g. blood and other background tissues]: occurred between 5 and 120 minutes p.i.
[1]; [2]
  tumour uptake and retention: exhibited tumour uptake and retention
ApoE ligation model; 5 min post injection
  % ID/g Blood: 6.5 % ID/g
  % ID/g Carotid: 3.3 % ID/g
  % ID/g Heart: 5.5 % ID/g
  Carotid: Blood: 0.5
  Carotid: Heart: 0.8
ApoE ligation model; 120 min post injection
  % ID/g Blood: 1.5 % ID/g
  % ID/g Carotid: 2.7 % ID/g
  % ID/g Heart: 3.6 % ID/g
  % Retained Carotid: 83%
  Carotid: Blood: 1.8
  Carotid: Heart: 0.8
ApoE ligation model; 360 min post injection
  % ID/g Blood: 1.6 % ID/g
  % ID/g Carotid: 1.6 % ID/g
  % ID/g Heart: 1.5 % ID/g
  % Retained Carotid: 47%
  Carotid: Blood: 1.0
  Carotid: Heart: 1.0
ApoE ligation model; [2]
  carotid uptake and retention: exhibited carotid uptake and retention
ApoE ligation model; mouse, in vivo
  carotid to blood ratios: good
  clearance from normal tissues [e.g. blood and other background tissues]: significant

## CNC(=O)[C@H](Cc1ccc(I)cc1)NC(=O)[C@@H](CC(=O)NO)CC(C)C [Compound 3]
MMP-1
  Ki: 1.77 nM
MMP-12
  Ki: 0.4 ± 0.04 nM
MMP-2
  Ki: 0.2 ± 0.11 nM
MMP-9
  Ki: 0.11 ± 0.08 nM

## CC(C)C[C@H](CC(=O)N[C@@H](Cc1c[nH]c2ccccc12)C(=O)NCc1ccc([123I])cc1)C(=O)NO [Compound 6A]
ApoE ligation model; 5 min post injection
  % ID/g Blood: 9.9 % ID/g
  % ID/g Carotid: 3.9 % ID/g
  % ID/g Heart: 9.8 % ID/g
  Carotid: Blood: 0.3
  Carotid: Heart: 0.4
ApoE ligation model; 60 min post injection
  % ID/g Blood: 3.2 % ID/g
  % ID/g Carotid: 1.4 % ID/g
  % ID/g Heart: 2.2 % ID/g
  % Retained Carotid: 36%
  Carotid: Blood: 0.6
  Carotid: Heart: 0.7
ApoE ligation model; 120 min post injection
  % ID/g Blood: 2.5 % ID/g
  % ID/g Carotid: 1.4 % ID/g
  % ID/g Heart: 1.5 % ID/g
  % Retained Carotid: 37%
  Carotid: Blood: 0.6
  Carotid: Heart: 1.0

## CC(C)C[C@H](CC(=O)NO)C(=O)N[C@@H](Cc1c[nH]c2ccccc12)C(=O)NCc1ccc(I)cc1 [Compound 7]
MMP-1
  Ki: 1.57 ± 2.37 nM

## CNC(=O)C(CCC(=O)NCCOCCOCCOCCOCCOCCOCCOCCOCCOCCOCCOCCOCCC(=O)NCc1ccc(I)cc1)NC(=O)CC(CC(C)C)C(=O)NO (stereo not shown) [Compound 10]
MMP-1
  Ki: 23.9 nM
MMP-12
  Ki: 4.7 nM
MMP-2
  Ki: 8.8 ± 3.1 nM
MMP-9
  Ki: 2.85 ± 3.5 nM

## CNC(=O)C(CCC(=O)NCCOCCOCCOCCOCCOCCOCCOCCOCCOCCOCCOCCOCCC(=O)NCc1ccc(I)cc1)NC(=O)C(CC(=O)NO)CC(C)C (stereo not shown) [Compound 12]
MMP-1
  Ki: 28.5 nM
MMP-12
  Ki: 8.3 nM
MMP-2
  Ki: 21 ± 2.2 nM
MMP-9
  Ki: 7.15 ± 3.32 nM

## CC(C)CC(CC(=O)NC(Cc1c[nH]c2ccccc12)C(=O)NCCOCCOCCOCCOCCOCCOCCOCCOCCOCCOCCOCCOCCC(=O)NCc1ccc(I)cc1)C(=O)NO (stereo not shown) [Compound 14]
MMP-1
  Ki: 2.68 ± 0.19 nM
MMP-12
  Ki: 0.51 nM
MMP-8
  Ki: 0.082 nM
MMP-2
  Ki: 0.21 ± 0.05 nM
MMP-9
  Ki: 0.04 ± 0.03 nM

## CC(C)CC(CC(=O)NO)C(=O)NC(Cc1c[nH]c2ccccc12)C(=O)NCCOCCOCCOCCOCCOCCOCCOCCOCCOCCOCCOCCOCCC(=O)NCc1ccc(I)cc1 (stereo not shown) [Compound 16]
MMP-1
  Ki: 18 ± 1.69 nM
MMP-12
  Ki: 0.4 ± 0.09 nM
MMP-2
  Ki: 0.61 ± 0.16 nM
MMP-9
  Ki: 0.5 ± 0.42 nM

## CC(C)C[C@H](CC(=O)N[C@@H](C)C(=O)NCc1ccc([123I])cc1)C(=O)NO [Compound 18A]
ApoE ligation model; 5 min post injection
  % ID/g Blood: 7.3 % ID/g
  % ID/g Carotid: 2.9 % ID/g
  % ID/g Heart: 10.1 % ID/g
  Carotid: Blood: 0.5
  Carotid: Heart: 0.3
ApoE ligation model; 120 min post injection
  % ID/g Blood: 2.4 % ID/g
  % ID/g Carotid: 1.0 % ID/g
  % ID/g Heart: 2.6 % ID/g
  % Retained Carotid: 34%
  Carotid: Blood: 0.4
  Carotid: Heart: 0.4
ApoE ligation model; 360 min post injection
  % ID/g Blood: 1.2 % ID/g
  % ID/g Carotid: 0.8 % ID/g
  % ID/g Heart: 1.0 % ID/g
  % Retained Carotid: 26%
  Carotid: Blood: 0.7
  Carotid: Heart: 0.8
